Results taken from patent US11912645B2, “Lipopeptide compounds for the treatment of pain disorders” (INSERM (Institut National de la Santé et de la Recherche …, priority 2017, dated 2024).

Legend:
[1] = system: Caco-2 cells; assay: CXCL8 secretion by Caco-2 cells (ELISA); assay type: cell-based, human; details: 1, 10, 100 μM; 24 hours
Procedure: (§1) FIG. 5: C12-Asn-GABA crosses the epithelial barrier without modifying epithelial cells physiology. Caco-2 cells were cultivated into transwell chambers. After treatment with C12-Asn-GABA (800 ng) at the apical side, C12-Asn-GABA was quantified inside the cells and both the apical and basolateral compartments by LC-MS/MS (A); data are represented as mean±SEM, n=3 experiments of 3 wells per condition. Extracted ion chromatogram at the exact mass of GABA (104.0702 m/z) with a mass accuracy of 5 ppm of the GABA commercial standard (GABA (Std.) and apical and basolateral compartments after loading or not Caco-2 cells with 800 ng of GABA at the apical site (B); representation of one well, n=3 experiments of 3 wells per condition. Paracellular permeability assessed by the passage of FITC-dextran loaded at the apical side (C) and CXCL8 secretion assessed by ELISA (D) were monitored after treatment of Caco-2 cells at the apical side with C12-Asn-GABA (10 μM); data are represented as mean±SEM, n=3 experiments of 3 wells per condition. […]
To assess the effect of C12-Asn-GABA on paracellular permeability, transport of dextran 4 kDa FITC across a Caco-2 cell monolayer was investigated. […] In parallel, the release of CXCL8 from Caco-2 cells into the medium, of both apical and basolateral sides of the transwell, was assessed by ELISA. […]

[2] = system: Caco-2 cells; assay: Absorption across Caco-2 monolayer in transwell chambers; assay type: in vitro ADME, human; details: 800 ng apical
Procedure: as §1
Caco-2 cells were grown in Glutamax DMEM (Gibco, Invitrogen life technologies, Paisley, UK) supplemented with 10% heat-inactivated fetal bovine serum (FBS) (Gibco, Invitrogen life technologies, Paisley, UK), 1% nonessential amino acids and 1% antibiotics (100 U/ml penicillin and […] streptomycin (Gibco, Invitrogen life technologies, Grand Island, N.Y., USA) at 37° C. in a 5% C02 water-saturated atmosphere. Cells were seeded on Transwell inserts (Costar, Sigma-Aldrich, Saint-Quentin Fallavier, France) and absorption studies of C12-Asn-GABA and GABA were performed 16 days later. These compounds were quantified by LC-MS/MS in both apical and basolateral chambers as well as in cells. The effect of C12-Asn-GABA (1-100 μM) on paracellular permeability was also measured by mucosal-to-serosal flux of 4 kDa Fluorescein Isothiocyanate (FITC)-labelled dextran as previously described^31. […]
The initial barrier for any drug absorption is the intestinal epithelial cell wall. […] The transport of GABA alone across the cell monolayer was also assessed. […]

[3] = system: mouse sensory neurons activated by mix of GPCR agonists (histamine, serotonin, bradykinin); assay: Calcium flux in sensory neurons activated by mix of GPCR agonists; assay type: cell-based; details: serotonin 10 μM each, pretreatment with increasing amounts of compound
Procedure: FIG. 4: C12-Asn-GABA inhibits neuronal activation via the GABA B receptor. Amplitude of intracellular calcium mobilization (ΔF/F; right panel) in mouse sensory neurons and percentage of responding neurons (left panel) pretreated with increasing amounts of C12-Asn-GABA (black circle) or vehicle (HBSS; white circle) and treated with capsaicin (125 nM; A) or a mix of G protein coupled receptor agonists (histamine, serotonin and bradykinin 10 μM each; B). Data are represented as mean±SEM; n=4 independent experiments of 3 wells per condition and 30-80 neurons per well. […] Percentage of responding neurons pretreated with increasing amounts of saclofen (black circle) or vehicle (HBSS; white circle) and treated with C12-Asn-GABA (10 μM) and capsaicin (125 nM; C) or a mix of G protein coupled receptor agonist (histamine, serotonin and bradykinin 10 μM each; D). Data are represented as mean±SEM; n=4 independent experiments of 3 wells per condition and 30-80 neurons per well.
Male C57B16 mice (6-8 weeks) were used to produce primary cultures of dorsal root ganglia (DRG) sensory neurons for calcium flux experiments, and to perform studies of colorectal distention and intestinal isotonic contraction. All procedures were approved by Institutional Animal Care Committees (CEEA 122). […]

CCCCCCCCCCCC(=O)NC(CC(N)=O)C(=O)NCCCC(=O)O (stereo not shown) [C12-Asn-GABA, C11 C(O)-Asn-gamma-aminobutyric acid]
secretion of CXCL8 (apical and basolateral) [1]: None of the tested doses (1, 10, 100 μM) and neither the vehicle modified the secretion of CXCL8 | fraction of apically added compound found in the basolateral chamber ([2]; 24 h, LC-MS/MS): approximately 50% | level in epithelial cells ([2]; 24 h of incubation): low levels | calcium flux increase induced by mix of GPCR agonists (% responding neurons, amplitude ΔF/F) [3]: prevented by C12-Asn-GABA pretreatment in a dose-dependent manner
